Measurements taken from patent US8415469B2, “Compounds and methods for kinase modulation, and indications therefor” (Plexxikon Inc., priority 2005, dated 2013).
pIC50: −log10 of the molar value.

What was measured:
Type in all cases: biochemical
Pyk2 = biological target: T1, Pyk2 (Homo sapiens, UniProt Q14289); assay: AlphaScreen kinase assay, Pyk2; conditions: read-out: IC50, activity toward kinase Pyk2
T1 construct: purchased Upstate Biotechnology
Protocol: (§3) AlphaScreen assays were done using compounds dissolved in DMSO to a concentration of 20 mM. The compounds were diluted accordingly to the desired final concentrations in each sample well, using 1:3 serial dilution for a total of 8 concentration points. Plates were prepared such that each kinase reaction is 20 μl in 1× kinase buffer, 5% DMSO and 10 μM ATP. After incubation of the kinase reaction for 1 hour at room temperature, 5 μl of donor beads in stop buffer (50 mM EDTA in 1× kinase buffer) was added, the sample was mixed and incubated for 20 minutes at room temperature before adding 5 μl of acceptor beads in stop buffer. The samples were incubated for 60 minutes at room temperature and the signal per well was read on AlphaQuest reader.

Fak = biological target: T2, Fak (Homo sapiens, UniProt Q05397); assay: AlphaScreen kinase assay, Fak; conditions: read-out: IC50, activity toward kinase Fak
T2 construct: P1358.pFastBacHtb FAK S411-Q686-X; His6 with pFastBacHTb leader (TEV site) (N); made in house; host or cells: Sf9 (baculovirus)
T2 sequence (Q05397 411-686): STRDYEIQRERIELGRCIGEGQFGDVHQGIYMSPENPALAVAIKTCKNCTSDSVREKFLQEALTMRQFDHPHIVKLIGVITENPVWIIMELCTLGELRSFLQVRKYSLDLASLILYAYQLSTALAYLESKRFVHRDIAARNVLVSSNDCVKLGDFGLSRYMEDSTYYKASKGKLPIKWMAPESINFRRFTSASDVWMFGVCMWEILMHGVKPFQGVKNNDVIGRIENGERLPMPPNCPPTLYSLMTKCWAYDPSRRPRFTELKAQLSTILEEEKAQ

Plk1 = Plk1 (Homo sapiens, UniProt P53350); assay: AlphaScreen kinase assay, Plk1; conditions: read-out: IC50, activity toward kinase Plk1
Sequence of Plk1 (P53350 whole entry): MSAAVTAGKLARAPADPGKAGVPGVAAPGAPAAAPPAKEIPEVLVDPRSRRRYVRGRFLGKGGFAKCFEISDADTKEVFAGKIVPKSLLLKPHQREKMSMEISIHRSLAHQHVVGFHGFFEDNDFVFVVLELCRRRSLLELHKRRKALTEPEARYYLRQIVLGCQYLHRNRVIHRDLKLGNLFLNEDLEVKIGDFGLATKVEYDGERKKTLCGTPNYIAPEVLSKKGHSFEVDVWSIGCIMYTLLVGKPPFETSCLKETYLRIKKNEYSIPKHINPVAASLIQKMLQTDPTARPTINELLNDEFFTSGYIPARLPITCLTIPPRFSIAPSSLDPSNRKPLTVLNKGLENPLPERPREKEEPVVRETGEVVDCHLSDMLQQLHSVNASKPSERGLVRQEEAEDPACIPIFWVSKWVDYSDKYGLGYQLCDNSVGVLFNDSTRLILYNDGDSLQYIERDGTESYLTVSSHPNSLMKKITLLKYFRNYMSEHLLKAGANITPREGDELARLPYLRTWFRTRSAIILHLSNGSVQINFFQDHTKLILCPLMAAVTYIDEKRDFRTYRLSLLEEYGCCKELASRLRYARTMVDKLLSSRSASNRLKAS
Source text: AlphaScreen assay was used to screen additional kinases. The assay is similarly dependent on the phosphorylation of a peptide substrate. In this assay, an antibody that recognizes phosphorylated substrate is bound to an acceptor bead. The peptide substrate is attached to biotin, which binds to a donor head that contains streptavidin. Thus phosphorylated substrate is bound by antibody and streptavidin, bringing the donor and acceptor heads into close proximity when kinase is not inhibited. The donor produces singlet oxygen which results in emission from the acceptor when they are in close proximity. Conversely, when kinase is inhibited, the donor and acceptor beads are not associated and the emission from the acceptor is reduced.
AlphaScreen assays were done using compounds dissolved in DMSO to a concentration of 20 mM. The compounds were diluted accordingly to the desired final concentrations in each sample well, using 1:3 serial dilution for a total of 8 concentration points.

Flt1 = biological target: T3, Flt1 (Homo sapiens, UniProt P17948); assay: AlphaScreen kinase assay, Flt1; conditions: read-out: IC50, activity toward kinase Flt1
T3 construct: P1826.pETN6 BI-PTP FLT1 M799-D1165-X WT; His6 (N); made in house; host or cells: E. coli (PTP1B co-expressed)
T3 sequence (P17948 with tags, fused parts or gaps): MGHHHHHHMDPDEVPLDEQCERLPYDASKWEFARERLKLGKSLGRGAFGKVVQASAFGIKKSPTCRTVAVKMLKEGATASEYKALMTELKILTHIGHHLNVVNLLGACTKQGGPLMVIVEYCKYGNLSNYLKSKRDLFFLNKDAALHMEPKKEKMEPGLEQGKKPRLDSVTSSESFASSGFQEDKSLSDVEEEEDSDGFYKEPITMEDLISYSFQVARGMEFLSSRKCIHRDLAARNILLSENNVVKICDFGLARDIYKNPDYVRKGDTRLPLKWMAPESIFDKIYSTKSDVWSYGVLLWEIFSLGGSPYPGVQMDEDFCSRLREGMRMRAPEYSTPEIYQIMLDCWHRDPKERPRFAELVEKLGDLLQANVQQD

MAP2K1 = biological target: T4, MAP2K1 (Homo sapiens, UniProt Q02750); assay: Z'-Lyte FRET kinase assay (Invitrogen), MAP2K1; conditions: read-out: IC50, activity toward kinase MAP2K1
T4 construct: purchased Invitrogen (assay run by Invitrogen)
T4 sequence (Q02750 whole entry): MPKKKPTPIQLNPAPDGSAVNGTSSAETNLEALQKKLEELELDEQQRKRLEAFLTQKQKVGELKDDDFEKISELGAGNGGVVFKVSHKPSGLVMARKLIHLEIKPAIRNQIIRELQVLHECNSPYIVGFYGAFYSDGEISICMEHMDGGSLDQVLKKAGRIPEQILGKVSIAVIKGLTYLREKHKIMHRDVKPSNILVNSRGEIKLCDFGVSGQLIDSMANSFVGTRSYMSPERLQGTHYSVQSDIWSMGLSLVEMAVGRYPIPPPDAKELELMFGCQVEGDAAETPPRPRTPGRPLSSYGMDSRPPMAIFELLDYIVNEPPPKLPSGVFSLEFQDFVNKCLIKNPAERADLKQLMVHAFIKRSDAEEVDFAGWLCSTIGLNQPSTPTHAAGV

Stk6 = biological target: T5, Stk6 (Homo sapiens, UniProt O14965); assay: Z'-Lyte FRET kinase assay (Invitrogen), Stk6; conditions: read-out: IC50, activity toward kinase Stk6
T5 construct: purchased Invitrogen (Carlsbad, Calif.), screening service
T5 sequence (O14965 1-403): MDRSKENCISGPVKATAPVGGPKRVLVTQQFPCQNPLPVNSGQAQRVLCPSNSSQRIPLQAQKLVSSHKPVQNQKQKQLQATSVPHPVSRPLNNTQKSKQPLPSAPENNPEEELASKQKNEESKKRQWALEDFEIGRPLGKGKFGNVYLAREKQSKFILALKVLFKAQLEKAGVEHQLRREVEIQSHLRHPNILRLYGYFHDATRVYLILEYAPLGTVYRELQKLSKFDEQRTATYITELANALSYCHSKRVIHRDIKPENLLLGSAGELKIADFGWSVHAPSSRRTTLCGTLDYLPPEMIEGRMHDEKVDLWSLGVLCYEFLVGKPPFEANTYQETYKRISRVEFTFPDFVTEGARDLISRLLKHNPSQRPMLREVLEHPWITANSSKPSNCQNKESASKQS

Kdr = biological target: T6, Kdr (Homo sapiens, UniProt P35968); assay: Z'-Lyte FRET kinase assay (Invitrogen), Kdr; conditions: read-out: IC50, activity toward kinase Kdr
T6 construct: purchased Invitrogen (assay run by Invitrogen)
T6 sequence (P35968 20-1356): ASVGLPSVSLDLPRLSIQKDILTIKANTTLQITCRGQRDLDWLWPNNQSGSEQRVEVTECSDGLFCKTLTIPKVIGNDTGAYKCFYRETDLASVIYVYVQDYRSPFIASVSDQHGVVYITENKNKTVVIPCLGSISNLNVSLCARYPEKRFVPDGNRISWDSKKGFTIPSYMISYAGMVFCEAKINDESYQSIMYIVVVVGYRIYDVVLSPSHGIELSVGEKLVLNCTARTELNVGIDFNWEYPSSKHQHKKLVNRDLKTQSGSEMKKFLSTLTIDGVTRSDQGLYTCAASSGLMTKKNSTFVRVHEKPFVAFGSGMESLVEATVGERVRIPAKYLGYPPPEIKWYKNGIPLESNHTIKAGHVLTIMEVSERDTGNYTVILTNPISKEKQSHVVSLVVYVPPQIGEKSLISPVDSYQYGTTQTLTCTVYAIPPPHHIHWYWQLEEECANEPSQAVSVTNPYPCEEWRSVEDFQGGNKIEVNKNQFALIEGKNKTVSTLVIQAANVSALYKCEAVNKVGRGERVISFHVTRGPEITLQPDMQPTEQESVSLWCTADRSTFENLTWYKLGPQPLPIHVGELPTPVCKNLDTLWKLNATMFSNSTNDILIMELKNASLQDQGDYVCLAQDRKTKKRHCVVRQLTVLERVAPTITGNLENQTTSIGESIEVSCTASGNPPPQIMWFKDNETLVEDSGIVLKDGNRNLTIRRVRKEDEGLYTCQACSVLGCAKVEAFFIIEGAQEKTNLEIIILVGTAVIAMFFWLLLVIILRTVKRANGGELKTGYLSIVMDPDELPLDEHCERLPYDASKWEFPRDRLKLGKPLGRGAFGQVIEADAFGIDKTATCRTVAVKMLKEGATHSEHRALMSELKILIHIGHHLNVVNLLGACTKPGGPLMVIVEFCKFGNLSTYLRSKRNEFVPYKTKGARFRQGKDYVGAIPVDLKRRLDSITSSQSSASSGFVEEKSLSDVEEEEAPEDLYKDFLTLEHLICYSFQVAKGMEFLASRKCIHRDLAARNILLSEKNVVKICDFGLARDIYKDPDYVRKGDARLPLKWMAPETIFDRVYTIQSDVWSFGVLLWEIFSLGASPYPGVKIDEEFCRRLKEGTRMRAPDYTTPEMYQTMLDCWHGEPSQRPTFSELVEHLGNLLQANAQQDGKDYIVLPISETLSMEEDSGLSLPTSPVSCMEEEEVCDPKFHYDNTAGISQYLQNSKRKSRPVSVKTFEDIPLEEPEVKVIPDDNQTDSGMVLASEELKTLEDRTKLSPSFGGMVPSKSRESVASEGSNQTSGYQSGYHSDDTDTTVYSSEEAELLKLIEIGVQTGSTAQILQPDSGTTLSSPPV

Kit = biological target: T7, Kit (Homo sapiens, UniProt P10721); assay: AlphaScreen kinase assay, Kit; conditions: read-out: IC50, activity toward kinase Kit
T7 construct: P1332.N6 BI PTP KIT M552-K948-X COD; His6 (N); made in house; host or cells: E. coli (PTP1B co-expressed)
T7 sequence (P10721 with tags, fused parts or gaps): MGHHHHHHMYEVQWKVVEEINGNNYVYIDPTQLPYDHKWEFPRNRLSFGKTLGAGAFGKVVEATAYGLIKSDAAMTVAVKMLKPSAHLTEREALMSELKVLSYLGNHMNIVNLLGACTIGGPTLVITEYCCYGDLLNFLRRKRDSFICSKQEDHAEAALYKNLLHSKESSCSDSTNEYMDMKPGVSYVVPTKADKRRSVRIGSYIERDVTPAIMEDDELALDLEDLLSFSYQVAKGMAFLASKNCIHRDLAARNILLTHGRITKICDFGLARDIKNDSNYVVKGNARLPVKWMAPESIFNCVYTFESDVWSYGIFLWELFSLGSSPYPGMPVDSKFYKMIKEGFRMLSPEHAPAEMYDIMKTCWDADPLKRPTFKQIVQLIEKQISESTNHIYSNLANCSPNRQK

B-Raf V600E = biological target: T8, B-Raf V600E (Homo sapiens, UniProt P15056, V600E); assay: AlphaScreen kinase assay, B-Raf V600E; conditions: read-out: IC50, activity toward kinase B-Raf V600E
T8 construct: P4254. pFastBacBD-CDC37 BRAF D437-K722-X, V600E; His6 with pFastBac HT leader (TEV site) (N); made in house; host or cells: Sf9 (baculovirus; chaperone CDC37 co-expressed)
T8 sequence (P15056 with tags, fused parts or gaps V600E): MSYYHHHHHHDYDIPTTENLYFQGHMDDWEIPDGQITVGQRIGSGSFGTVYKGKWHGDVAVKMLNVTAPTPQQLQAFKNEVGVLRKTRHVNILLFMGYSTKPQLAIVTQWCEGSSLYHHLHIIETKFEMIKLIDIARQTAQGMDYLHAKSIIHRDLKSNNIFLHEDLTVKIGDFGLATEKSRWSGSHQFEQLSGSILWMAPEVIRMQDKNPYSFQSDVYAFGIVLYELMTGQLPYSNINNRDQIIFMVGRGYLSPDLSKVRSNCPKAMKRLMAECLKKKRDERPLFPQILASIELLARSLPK

Yes = biological target: T9, Yes (Homo sapiens, UniProt P07947); assay: Z'-Lyte FRET kinase assay (Invitrogen), Yes; conditions: read-out: IC50, activity toward kinase Yes
T9 construct: purchased Invitrogen (Carlsbad, Calif.), screening service
T9 sequence (P07947 whole entry): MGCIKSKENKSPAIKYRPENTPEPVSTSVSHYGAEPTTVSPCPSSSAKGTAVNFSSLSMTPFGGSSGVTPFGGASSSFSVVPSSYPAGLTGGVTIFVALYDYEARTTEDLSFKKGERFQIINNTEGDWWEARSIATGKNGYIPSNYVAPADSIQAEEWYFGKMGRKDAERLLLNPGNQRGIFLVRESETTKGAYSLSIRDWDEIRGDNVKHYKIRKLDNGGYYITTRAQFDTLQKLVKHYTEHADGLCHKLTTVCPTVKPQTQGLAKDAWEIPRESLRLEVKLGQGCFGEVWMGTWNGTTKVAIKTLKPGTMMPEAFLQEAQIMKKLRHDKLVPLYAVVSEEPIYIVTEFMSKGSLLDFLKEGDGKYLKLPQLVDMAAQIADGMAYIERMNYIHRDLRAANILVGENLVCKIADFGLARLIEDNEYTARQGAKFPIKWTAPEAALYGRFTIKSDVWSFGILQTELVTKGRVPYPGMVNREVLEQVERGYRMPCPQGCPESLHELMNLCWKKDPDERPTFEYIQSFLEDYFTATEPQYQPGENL
In short: (§1)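 Each kinase phosphorylated a FRET peptide (2 μM) at 10 μM ATP in 50 mM HEPES pH 7.5, 50 mM MgCl2, 5 mM EGTA, 0.05% BRIJ-35 with 1% DMSO, 1 h at room temperature. After a 1 h protease development step, coumarin/fluorescein emission ratio was read across serial compound dilutions.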

Ret = biological target: T10, Ret (Homo sapiens, UniProt P07949); assay: AlphaScreen kinase assay, Ret; conditions: read-out: IC50, activity toward kinase Ret
T10 construct: P1378.pET-SF BI-PTP RET H661-R1012 HIS; made in house
T10 sequence (P07949 with tags, fused parts or gaps): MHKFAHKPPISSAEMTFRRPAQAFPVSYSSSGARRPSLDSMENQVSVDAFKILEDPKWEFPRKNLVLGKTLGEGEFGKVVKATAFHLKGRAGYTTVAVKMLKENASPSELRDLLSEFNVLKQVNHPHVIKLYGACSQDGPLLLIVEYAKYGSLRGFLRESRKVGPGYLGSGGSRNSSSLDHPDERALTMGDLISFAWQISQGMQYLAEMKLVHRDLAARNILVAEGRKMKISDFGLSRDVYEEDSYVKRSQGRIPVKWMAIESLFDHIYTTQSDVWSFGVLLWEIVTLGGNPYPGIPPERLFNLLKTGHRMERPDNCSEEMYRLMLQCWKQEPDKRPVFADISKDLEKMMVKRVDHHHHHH
Protocol: as §3

EphB2 = biological target: T11, EphB2 (Homo sapiens, UniProt P29323); assay: Z'-Lyte FRET kinase assay (Invitrogen), EphB2; conditions: read-out: IC50, activity toward kinase EphB2
T11 construct: purchased Invitrogen (assay run by Invitrogen)
T11 sequence (P29323 19-1055): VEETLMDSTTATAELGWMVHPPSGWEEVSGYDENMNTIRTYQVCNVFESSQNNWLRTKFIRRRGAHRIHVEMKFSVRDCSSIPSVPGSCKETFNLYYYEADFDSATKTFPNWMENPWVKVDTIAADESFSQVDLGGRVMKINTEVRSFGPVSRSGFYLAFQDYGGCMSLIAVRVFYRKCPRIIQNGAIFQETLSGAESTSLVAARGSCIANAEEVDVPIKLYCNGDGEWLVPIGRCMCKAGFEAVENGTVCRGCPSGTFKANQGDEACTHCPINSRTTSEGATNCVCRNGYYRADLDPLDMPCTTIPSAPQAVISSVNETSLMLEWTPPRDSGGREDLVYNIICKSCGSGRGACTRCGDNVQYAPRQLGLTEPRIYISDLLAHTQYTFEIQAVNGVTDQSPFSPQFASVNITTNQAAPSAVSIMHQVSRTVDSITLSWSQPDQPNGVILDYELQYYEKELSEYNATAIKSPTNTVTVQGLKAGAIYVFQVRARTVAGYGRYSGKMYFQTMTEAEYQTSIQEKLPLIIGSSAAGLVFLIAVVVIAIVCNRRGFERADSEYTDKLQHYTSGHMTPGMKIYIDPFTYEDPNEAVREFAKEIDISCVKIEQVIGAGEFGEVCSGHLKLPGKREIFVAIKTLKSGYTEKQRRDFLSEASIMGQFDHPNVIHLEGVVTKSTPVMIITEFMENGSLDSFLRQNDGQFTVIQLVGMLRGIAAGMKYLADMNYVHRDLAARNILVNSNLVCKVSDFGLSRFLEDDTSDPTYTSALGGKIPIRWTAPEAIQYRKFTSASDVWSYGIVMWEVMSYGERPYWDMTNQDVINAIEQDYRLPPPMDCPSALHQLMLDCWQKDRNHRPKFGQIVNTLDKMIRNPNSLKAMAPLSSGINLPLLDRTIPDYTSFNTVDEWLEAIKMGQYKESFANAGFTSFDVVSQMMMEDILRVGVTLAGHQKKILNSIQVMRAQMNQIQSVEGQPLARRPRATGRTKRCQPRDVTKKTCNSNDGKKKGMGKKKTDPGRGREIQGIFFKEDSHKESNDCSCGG
In short: as §1

Btk = biological target: T12, Btk (Homo sapiens, UniProt Q06187); assay: Z'-Lyte FRET kinase assay (Invitrogen), Btk; conditions: read-out: IC50, activity toward kinase Btk
T12 construct: purchased Invitrogen (assay run by Invitrogen)
T12 sequence (Q06187 whole entry): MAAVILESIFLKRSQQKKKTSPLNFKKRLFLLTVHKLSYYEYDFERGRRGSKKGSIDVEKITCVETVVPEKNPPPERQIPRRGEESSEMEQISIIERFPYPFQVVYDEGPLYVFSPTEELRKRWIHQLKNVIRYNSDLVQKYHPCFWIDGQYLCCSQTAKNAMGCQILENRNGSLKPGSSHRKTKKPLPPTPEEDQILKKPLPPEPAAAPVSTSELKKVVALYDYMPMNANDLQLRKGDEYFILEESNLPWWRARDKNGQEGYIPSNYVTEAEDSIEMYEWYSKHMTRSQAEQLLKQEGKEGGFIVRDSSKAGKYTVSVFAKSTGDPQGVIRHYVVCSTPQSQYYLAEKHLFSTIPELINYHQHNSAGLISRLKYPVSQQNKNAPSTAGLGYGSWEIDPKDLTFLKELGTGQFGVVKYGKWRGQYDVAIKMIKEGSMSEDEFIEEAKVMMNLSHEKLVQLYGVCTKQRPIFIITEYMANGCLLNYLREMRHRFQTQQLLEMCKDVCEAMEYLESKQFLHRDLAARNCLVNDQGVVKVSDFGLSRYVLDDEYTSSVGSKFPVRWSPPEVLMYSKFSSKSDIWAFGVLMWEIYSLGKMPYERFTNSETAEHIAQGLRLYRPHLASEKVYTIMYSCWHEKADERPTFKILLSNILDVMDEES

Akt3 = Akt3 (Homo sapiens, UniProt Q9Y243); assay: AlphaScreen kinase assay, Akt3; conditions: read-out: IC50, activity toward kinase Akt3
In short: (§2)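 Kinase activity was measured as phosphorylation of a biotinylated peptide, detected with streptavidin donor and phospho-antibody acceptor beads. Compounds, from 20 mM DMSO stocks, were tested at eight concentrations in 1:3 serial dilution.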

FGFR1 = biological target: T13, FGFR1 (Homo sapiens, UniProt P11362, C488A/C584S); assay: AlphaScreen kinase assay, FGFR1; conditions: read-out: IC50, activity toward kinase FGFR
T13 construct: P1351.pET N6 BI-PTP FGFR A458-E765-X C488A, C584S; made in house; host or cells: E. coli (PTP1B co-expressed)

Gsk3β = Gsk3β (Homo sapiens, UniProt P49841); assay: AlphaScreen kinase assay, Gsk3β; conditions: read-out: IC50, activity toward kinase Gsk3β
Sequence of Gsk3β (P49841 whole entry): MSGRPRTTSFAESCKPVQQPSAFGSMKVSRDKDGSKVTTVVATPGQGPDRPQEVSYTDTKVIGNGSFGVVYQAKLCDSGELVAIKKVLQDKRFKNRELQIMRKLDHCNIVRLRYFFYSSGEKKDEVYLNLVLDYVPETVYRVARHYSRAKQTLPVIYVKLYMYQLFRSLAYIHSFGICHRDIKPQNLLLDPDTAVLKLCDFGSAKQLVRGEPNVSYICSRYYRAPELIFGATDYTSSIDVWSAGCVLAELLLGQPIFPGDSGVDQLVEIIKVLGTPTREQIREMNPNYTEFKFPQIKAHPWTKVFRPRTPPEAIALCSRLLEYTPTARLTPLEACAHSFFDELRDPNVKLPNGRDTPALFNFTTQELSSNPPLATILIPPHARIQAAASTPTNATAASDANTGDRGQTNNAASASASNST
In short: as §2

Measured: pIC50

Cc1occc1Sc1c[nH]c2ncccc12 [Compound P-0018]
≥ 5.00: Pyk2 | Fak | Plk1 | Flt1 | MAP2K1 | Stk6 | Kdr | Kit

Nc1cccc(-c2ccnc3[nH]cc(C(=O)c4cccc(Cl)c4Cl)c23)c1 [Compound P-0075]
≥ 5.00: Plk1 | B-Raf V600E | Yes | Ret | EphB2 | Btk | Kdr

Cc1ccccc1C(=O)c1c[nH]c2nccc(-c3cccnc3)c12 [Compound P-0083]
≥ 5.00: Plk1 | Yes | Ret | EphB2 | Btk

COc1cccc(C(=O)c2c[nH]c3nccc(-c4cccc(N)c4)c23)c1 [Compound P-0099]
≥ 5.00: Plk1 | B-Raf V600E | Akt3 | Ret | MAP2K1 | Stk6 | FGFR1

O=C(c1ccc(Cl)cc1)c1c[nH]c2nccc(-c3cccnc3)c12 [Compound P-0113]
≥ 5.00: Plk1 | Ret | Btk | Kdr

Nc1cccc(-c2ccnc3[nH]cc(C(=O)c4ccc(Cl)cc4)c23)c1 [Compound P-0148]
≥ 5.00: Plk1 | B-Raf V600E | Ret | Stk6 | Gsk3β | Btk

Clc1ccc(Cc2c[nH]c3nccc(-c4ccccc4)c23)cn1 [Compound P-0286]
≥ 5.00: Plk1 | Ret

Cc1cc(C(=O)c2c[nH]c3nccc(-c4cccc(N)c4)c23)n(C)n1 [Compound P-0332]
≥ 5.00: Plk1

O=S(=O)(NCc1ccnc2[nH]ccc12)c1ccc(F)c(F)c1 [Compound P-0345]
≥ 5.00: Plk1 | Stk6

O=[N+]([O-])c1ccc(S(=O)(=O)NCc2ccnc3[nH]ccc23)cc1 [Compound P-0366]
≥ 5.00: Plk1

O=[N+]([O-])c1cccc(S(=O)(=O)NCc2ccnc3[nH]ccc23)c1 [Compound P-0480]
≥ 5.00: Plk1

O=C(O)CCc1c[nH]c2ncccc12 [Compound P-0490]
≥ 5.00: Plk1

O=S(=O)(Cc1ccccc1)NCc1c[nH]c2ncccc12 [Compound P-0581]
≥ 5.00: Plk1

O=S(=O)(Cc1cccc(Cl)c1)NCc1c[nH]c2ncccc12 [Compound P-1138]
≥ 5.00: Plk1 | B-Raf V600E
